From the supplement of paper PMC10307832

How the values were obtained:
Test in all cases: relative viability (nuclei count vs DMSO), 5 days (fraction); higher = more cells survive
EMC-BAC-2 = tested on: EMC-BAC-2
Summary of the method: (§1)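 Each reported value is a median over duplicate plates. It expresses relative viability: treated-well nuclei count divided by vehicle-well nuclei count. Lung cancer cell lines in 1536-well plates were dosed by pin tool a day after seeding, alone with one drug or with a fixed anchor-drug dose plus five library-drug doses (not always all listed) in √10 steps, and nuclei were counted after 5 days.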

NCI-H1650 = tested on: NCI-H1650
Summary of the method: as §1

NCI-H1915 = tested on: NCI-H1915
Summary of the method: as §1

NCI-H2347 = tested on: NCI-H2347
Summary of the method: as §1

LCLC-97TM1 = tested on: LCLC-97TM1
Summary of the method: as §1

H3255 = tested on: H3255
Summary of the method: as §1

NCI-H2009 = tested on: NCI-H2009
Summary of the method: as §1

NCI-H1993 = tested on: NCI-H1993
Summary of the method: as §1

BEN = tested on: BEN
Summary of the method: as §1

NCI-H2342 = tested on: NCI-H2342
Summary of the method: as §1

NCI-H358 = tested on: NCI-H358
Summary of the method: as §1

NCI-H2023 = tested on: NCI-H2023
Summary of the method: as §1

NCI-H2085 = tested on: NCI-H2085
Summary of the method: as §1

NCI-H727 = tested on: NCI-H727
Summary of the method: as §1

SW 1573 = tested on: SW 1573
Summary of the method: as §1

HOP-62 = tested on: HOP-62
Summary of the method: as §1

NCI-H2126 = tested on: NCI-H2126
Summary of the method: as §1

NCI-H322M = tested on: NCI-H322M
Summary of the method: as §1

NCI-H661 = tested on: NCI-H661
Summary of the method: as §1

PC-14 = tested on: PC-14
Summary of the method: as §1

LXF-289 = tested on: LXF-289
Summary of the method: as §1

SK-LU-1 = tested on: SK-LU-1
Summary of the method: as §1

NCI-H647 = tested on: NCI-H647
Summary of the method: as §1

CC(C)Oc1cc(Nc2nc(N[C@@H](C)c3ccc(F)cn3)ncc2Cl)n[nH]1 [AZ23] + O=C(CCCCCCC(=O)Nc1ccccc1)NO [Vorinostat] (partner 1 µM)
relative viability (EMC-BAC-2; first compound 0.01 µM): 0.333
relative viability (EMC-BAC-2; first compound 0.03162 µM): 0.511
relative viability (EMC-BAC-2; first compound 0.3162 µM): 0.505
relative viability (NCI-H1650; first compound 0.01 µM): 0.441
relative viability (NCI-H1650; first compound 0.03162 µM): 1.16
relative viability (NCI-H1650; first compound 0.3162 µM): 0.737
relative viability (NCI-H1915; first compound 0.01 µM): 0.575
relative viability (NCI-H1915; first compound 0.03162 µM): 0.526
relative viability (NCI-H1915; first compound 0.3162 µM): 0.58
relative viability (NCI-H2347; first compound 0.01 µM): 0.446
relative viability (NCI-H2347; first compound 0.03162 µM): 0.631
relative viability (NCI-H2347; first compound 0.3162 µM): 0.587
relative viability (LCLC-97TM1; first compound 0.01 µM): 0.582
relative viability (LCLC-97TM1; first compound 0.03162 µM): 0.885
relative viability (LCLC-97TM1; first compound 0.3162 µM): 0.396
relative viability (H3255; first compound 0.01 µM): 0.737
relative viability (H3255; first compound 0.03162 µM): 0.791
relative viability (H3255; first compound 0.3162 µM): 0.867
relative viability (NCI-H2009; first compound 0.01 µM): 0.704
relative viability (NCI-H2009; first compound 0.03162 µM): 0.787
relative viability (NCI-H2009; first compound 0.3162 µM): 0.793
relative viability (NCI-H1993; first compound 0.01 µM): 0.634
relative viability (NCI-H1993; first compound 0.03162 µM): 0.654
relative viability (NCI-H1993; first compound 0.3162 µM): 0.814
relative viability (BEN; first compound 0.01 µM): 0.599
relative viability (BEN; first compound 0.03162 µM): 0.659
relative viability (BEN; first compound 0.3162 µM): 0.597
relative viability (NCI-H2342; first compound 0.01 µM): 0.619
relative viability (NCI-H2342; first compound 0.03162 µM): 0.74
relative viability (NCI-H2342; first compound 0.3162 µM): 0.686
relative viability (NCI-H358; first compound 0.01 µM): 0.631
relative viability (NCI-H358; first compound 0.03162 µM): 0.718
relative viability (NCI-H358; first compound 0.3162 µM): 0.758
relative viability (NCI-H2023; first compound 0.03162 µM): 0.605
relative viability (NCI-H2023; first compound 0.3162 µM): 0.861
relative viability (NCI-H2085; first compound 0.01 µM): 0.662
relative viability (NCI-H2085; first compound 0.03162 µM): 0.88
relative viability (NCI-H2085; first compound 0.3162 µM): 0.755
relative viability (NCI-H727; first compound 0.01 µM): 1.07
relative viability (NCI-H727; first compound 0.03162 µM): 1.13
relative viability (NCI-H727; first compound 0.3162 µM): 1.37
relative viability (SW 1573; first compound 0.01 µM): 0.963
relative viability (SW 1573; first compound 0.03162 µM): 0.881
relative viability (SW 1573; first compound 0.3162 µM): 0.757
relative viability (HOP-62; first compound 0.01 µM): 0.527
relative viability (HOP-62; first compound 0.03162 µM): 0.765
relative viability (HOP-62; first compound 0.3162 µM): 0.733
relative viability (NCI-H2126; first compound 0.01 µM): 0.776
relative viability (NCI-H2126; first compound 0.03162 µM): 0.873
relative viability (NCI-H2126; first compound 0.3162 µM): 0.616
relative viability (NCI-H322M; first compound 0.01 µM): 0.674
relative viability (NCI-H322M; first compound 0.03162 µM): 0.881
relative viability (NCI-H322M; first compound 0.3162 µM): 0.93
relative viability (NCI-H661; first compound 0.01 µM): 0.814
relative viability (NCI-H661; first compound 0.03162 µM): 0.769
relative viability (NCI-H661; first compound 0.3162 µM): 0.87
relative viability (PC-14; first compound 0.01 µM): 0.284
relative viability (PC-14; first compound 0.03162 µM): 0.874
relative viability (PC-14; first compound 0.3162 µM): 0.905
relative viability (LXF-289; first compound 0.01 µM): 0.949
relative viability (LXF-289; first compound 0.03162 µM): 0.776
relative viability (LXF-289; first compound 0.3162 µM): 0.737
relative viability (SK-LU-1; first compound 0.03162 µM): 0.801
relative viability (SK-LU-1; first compound 0.3162 µM): 0.759
relative viability (NCI-H647; first compound 0.01 µM): 0.935
relative viability (NCI-H647; first compound 0.03162 µM): 0.497
relative viability (NCI-H647; first compound 0.3162 µM): 0.591
